The record followed here is US7563791B2, “Pyrrolotriazine derivatives useful for treating hyper-proliferative disorders and diseases associated with angiogenesis” (Bayer Pharmaceuticals Corporation, priority 2004, dated 2009).

As a reminder, the IC50 is the concentration that gives 50% inhibition. Read a high IC50 as a need for much substance. By inhibition is commonly meant the share of the control response that was lost under treatment. Low values mean a response near the control, high ones a response far below the control.

What all share (assay type): cell-based
The subject of one test is HCT116 cells. Briefly: Tumor cell proliferation (Alamar Blue), HCT116. Particulars: Homo sapiens, HCT-116, 72 h. Summed up:
(§1)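 Cells seeded at 3.0×10^3/well in RPMI with 10% FBS for 16 h, then treated with compound (added medium held 40 μM to 18 nM compound, 0.4% DMSO) for 72 h at 37 °C, 5% CO2. Viability by Alamar Blue, 3 h, fluorescence 544/590 nm. IC50 by linear regression of log concentration versus percent inhibition.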
For orientation: Resazurin is reduced to fluorescent resorufin, in cell work by metabolically active cells.

Test [1] relates to VEGF stimulated Phospho-ERK in HUVEC. Briefly: Growth factor stimulated p-ERK assay in HUVECs (VEGF stimulation, ERK1/2 Bioplex). The settings on record: Homo sapiens, @ 100 nM, compound 2 hrs, then 50 ng/ml VEGF 10 min. Put shortly:
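HUVECs in serum-free RPMI 1640/0.1% BSA pretreated with compound 2 hrs, then stimulated 10 min with 50 ng/ml VEGF (or bFGF). Lysate phospho-ERK1/2 quantified by bead-based Bio-Plex immunoassay on Luminex.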

In the next test the test system is MDA-MB-231 cells. Briefly: Tumor cell proliferation (Alamar Blue), MDA-MB-231. Particulars: Homo sapiens, MDA-MB-231, 72 h. Put shortly: as §1
The subject of test [2] is histone 3 phosphorylation in colon carcinoma (HCT116). Briefly: p-Histone3 assay: inhibition of histone 3 phosphorylation in HCT116. The settings on record: Homo sapiens, HCT-116, 24 h, HCT116, 24 hours compound treatment. Here is the method: Compounds were assayed for the inhibition of histone 3 phosphorylation in colon carcinoma (HCT116). Briefly, 20,000 cells/well were seeded in a 96-well black-walled, poly-d-lysine plates in RPMI+10% FBS and incubated at 37° C. in 5% CO2 overnight. The following day, the cells were treated with compounds for 24 hours at 37° C. Following compound treatment; plates were centrifuged at 1000 rpm for 2 minutes and washed twice with 100 μl of cold sterile TBS. Cells were then fixed with cold 3.7% formaldehyde in TBS (4° C. for 1 hour) and then permeabolized with 0.1% Triton-X-100 in TBS (room temperature for 30 minutes). Plates were then washed with of 0.25% BSA-TBS and blocked with BSA solution for 1 hour at room temperature while shaking. The supernatant was removed and replaced with diluted primary antibody (anti-phospho-histone 3, serine 10, Cell Signaling) at 1:250 in 0.25% BSA-TBS and incubated overnight at 4° C. The plates were washed and treated with diluted secondary antibody (anti-rabbit Eu-labeled) at 1:10000 in 0.25% BSA-TBS (room temperature for 1 hour). The antibody solution was removed from each well and washed eight times. The wash buffer was replaced with 50 μl pre-warmed enhancement solution and mixed on the orbital shaker for 10 minutes. Fluorescence was detected with a Victor V Fluorescence Detector. The data are expressed as percent inhibition: % inhibition=100−((Signal with inhibitor-background)/(Signal without inhibitor-background))×100.

Consider `CNC(=O)c1cn2ncnc(N)c2c1-c1ccc(NC(=O)Nc2cc(C(F)(F)F)ccc2F)cc1` [Example 59, 4-amino-5-{4-[({[2-fluoro-5-(trifluoromethyl)phenyl]amino}carbonyl)amino]phenyl}-N-methylpyrrolo[2,1-f][1,2,4]triazine-6-carboxamide], for which the IC50 in the test on HCT116 cells is over 0.5 µM; with HCT116 cells (bounds given in μM) it was under 1.5 µM; in the test with MDA-MB-231 cells, over 0.5 µM; in the test with MDA-MB-231 cells (bounds given in μM), under 1.5 µM; in test [2], over 0.5 µM; in test [2] (bound given in μM) it was under 1 µM. In test [1], this molecule showed an inhibition at 0.1 µM of over 50%.
For `COCCNC(=O)c1cn2ncnc(N)c2c1-c1ccc(NC(=O)Nc2cc(C(F)(F)F)ccc2F)cc1` [Example 167, 4-amino-5-{4-[({[2-fluoro-5-(trifluoromethyl)phenyl]amino}carbonyl)amino]phenyl}-N-(2-methoxyethyl)pyrrolo[2,1-f][1,2,4]triazine-6-carboxamide], the half-maximal inhibitory concentration (IC50) in test [2] is over 0.5 µM; in test [2] (bound given in μM) it was under 1 µM.
Consider `CCOC(=O)c1cn2ncnc(N)c2c1-c1ccc(NC(=O)Nc2cccc(Oc3ccccc3)c2)cc1` [Example 171, ethyl 4-amino-5-[4-({[(3-phenoxyphenyl)amino]carbonyl}amino)phenyl]pyrrolo[2,1-f][1,2,4]triazine-6-carboxylate], for which the IC50 in test [2] is under 0.5 µM.
The molecule `CCNC(=O)c1cn2ncnc(N)c2c1-c1ccc(NC(=O)Nc2cccc(C(F)(F)F)n2)cc1` [Example 176, 4-amino-N-ethyl-5-{4-[({[6-(trifluoromethyl)pyridin-2-yl]amino}carbonyl)amino]phenyl}pyrrolo[2,1-f][1,2,4]triazine-6-carboxamide] showed an IC50 in test [2] of under 0.5 µM.
The molecule `Nc1ncnn2cc(C(=O)NC3CC3)c(-c3ccc(NC(=O)Nc4cccc(C(F)(F)F)n4)cc3)c12` [Example 177, 4-amino-N-cyclopropyl-5-{4-[({[6-(trifluoromethyl)pyridin-2-yl]amino}carbonyl)amino]phenyl}pyrrolo[2,1-f][1,2,4]triazine-6-carboxamide] gave an IC50 in test [2] of under 0.5 µM.
Regarding `CSCCCNC(=O)c1cn2ncnc(N)c2c1-c1ccc(NC(=O)Nc2cccc(C(F)(F)F)n2)cc1` [Example 204, 4-amino-N-[3-(methylthio)propyl]-5-{4-[({[6-(trifluoromethyl)pyridin-2-yl]amino}carbonyl)amino]phenyl}pyrrolo[2,1-f][1,2,4]triazine-6-carboxamide], the results for the IC50 in test [2] and in test [2] (bound given in μM) were over 0.5 µM and under 1 µM, respectively.
